Patent US7268128B2, “1,3,5-trisubstituted-5-phenyl and 5-pyridyl pyrazolopyrimidinone derivatives having PDE7 inhibiting action” (Ausbio Pharma Co., Ltd., priority 2001, dated 2007)
Counter-ions that a name gives are not always drawn.

These molecules were tested against T1, PDE7 (type VII phosphodiesterase) (Homo sapiens, UniProt Q13946) (assay: PDE7 inhibiting activity (3H-cAMP hydrolysis, active fraction from MOLT-4 cells)). Settings: PDE7 fraction from MOLT-4 cells, 0.064 μM cAMP, 10 μM rolipram present, 2 hours at 25° C.; read-out: IC50 values for phosphodiesterase inhibiting activities (PDE7).
T1 construct: endogenous in cells; host or cells: MOLT-4 (ATCC CRL-1582), soluble fraction, HiTrapQ anion-exchange fraction
Format: biochemical
Method in brief: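 PDE7 from MOLT-4 cell soluble fraction, HiTrapQ NaCl-gradient purified. Compounds reacted 2 h at 25° C in 20 mM tris-HCl pH 7.5, 1 mM MgCl2, 0.1 μCi 3H-cAMP (0.064 μM cAMP), 10 μM rolipram, 5′-nucleotidase; QAE-Sephadex-separated supernatant counted.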

T1 sequence (Q13946 whole entry): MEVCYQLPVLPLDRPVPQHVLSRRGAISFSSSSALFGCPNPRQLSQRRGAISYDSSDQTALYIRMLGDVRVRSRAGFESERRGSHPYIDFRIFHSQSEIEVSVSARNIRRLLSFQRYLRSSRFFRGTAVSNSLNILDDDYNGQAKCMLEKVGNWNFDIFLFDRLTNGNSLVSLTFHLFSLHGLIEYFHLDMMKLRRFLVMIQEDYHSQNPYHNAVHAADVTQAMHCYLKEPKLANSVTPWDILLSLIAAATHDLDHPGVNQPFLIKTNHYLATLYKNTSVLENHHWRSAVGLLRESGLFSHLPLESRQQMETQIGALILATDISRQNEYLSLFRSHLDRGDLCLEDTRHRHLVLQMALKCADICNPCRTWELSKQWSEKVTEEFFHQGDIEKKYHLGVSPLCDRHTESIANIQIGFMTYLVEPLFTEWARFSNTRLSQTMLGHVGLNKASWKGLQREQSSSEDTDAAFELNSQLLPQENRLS

SMILES	IC50 [nM]
COc1cc(NCCN(C)C)ccc1-c1nc2c(C)nn(C3CCCCC3)c2c(=O)[nH]1 [Example 230, 1-Cyclohexyl-5-(4-{[2-(dimethylamino)ethyl]amino}-2-methoxyphenyl)-3-methyl-1,6-dihydro-7H-pyrazolo[4,3-d]pyrimidin-7-one]	≤ 10
COc1cc(NC2CCN(C(C)=O)CC2)ccc1-c1nc2c(C)nn(C3CCCCC3)c2c(=O)[nH]1 [Example 231, 5-{4-[(1-Acetyl-4-piperidinyl)amino]-2-methoxyphenyl}-1-cyclohexyl-3-methyl-1,6-dihydro-7H-pyrazolo[4,3-d]pyrimidin-7-one]	≤ 1000
COc1cc(NC2CCN(C)CC2)ccc1-c1nc2c(C)nn(C3CCCCC3)c2c(=O)[nH]1 [Example 232, 1-Cyclohexyl-5-{2-methoxy-4-[(1-methyl-4-piperidinyl)amino]phenyl}-3-methyl-1,6-dihydro-7H-pyrazolo[4,3-d]pyrimidin-7-one]	≤ 10
COc1cc(CN2CCN(C)CC2)ccc1-c1nc2c(C)nn(C3CCCCC3)c2c(=O)[nH]1 [Example 234, 1-Cyclohexyl-5-{2-methoxy-4-[(4-methyl-1-piperazinyl)methyl]phenyl}-3-methyl-1,6-dihydro-7H-pyrazolo[4,3-d]pyrimidin-7-one]	≤ 1000
COc1cc(CN2CCOCC2)ccc1-c1nc2c(C)nn(C3CCCCC3)c2c(=O)[nH]1 [Example 235, 1-Cyclohexyl-5-[2-methoxy-4-(4-morpholinylmethyl)phenyl]-3-methyl-1,6-dihydro-7H-pyrazolo[4,3-d]pyrimidin-7-one]	≤ 1000
COc1cc(CN2CCC(O)CC2)ccc1-c1nc2c(C)nn(C3CCCCC3)c2c(=O)[nH]1 [Example 236, 1-Cyclohexyl-5-{4-[(4-hydroxy-1-piperidinyl)methyl]-2-methoxyphenyl}-3-methyl-1,6-dihydro-7H-pyrazolo[4,3-d]pyrimidin-7-one]	≤ 1000
COCCNCc1ccc(-c2nc3c(C)nn(C4CCCCC4)c3c(=O)[nH]2)c(OC)c1 [Example 237, 1-Cyclohexyl-5-(2-methoxy-4-{[(2-methoxyethyl)amino]methyl}phenyl)-3-methyl-1,6-dihydro-7H-pyrazolo[4,3-d]pyrimidin-7-one]	≤ 1000
COc1cc(CN2CCC(C(=O)O)CC2)ccc1-c1nc2c(C)nn(C3CCCCC3)c2c(=O)[nH]1 [Example 239, 1-[4-(1-Cyclohexyl-3-methyl-7-oxo-6,7-dihydro-1H-pyrazolo[4,3-d]pyrimidin-5-yl)-3-methoxybenzyl]-4-piperidinecarboxylic acid]	≤ 1000
CNC1CCN(Cc2ccc(-c3nc4c(C)nn(C5CCCCC5)c4c(=O)[nH]3)c(OC)c2)CC1 [Example 241, 1-Cyclohexyl-5-(2-methoxy-4-{[4-(methylamino)-1-piperidinyl]methyl}phenyl)-3-methyl-1,6-dihydro-7H-pyrazolo[4,3-d]pyrimidin-7-one]	≤ 1000
COc1cc(NC2CCOCC2)ccc1-c1nc2c(C)nn(C3CCCCC3)c2c(=O)[nH]1 [Example 242, 1-Cyclohexyl-5-[2-methoxy-4-(tetrahydro-2H-pyran-4-ylamino)phenyl]-3-methyl-1,6-dihydro-7H-pyrazolo[4,3-d]pyrimidin-7-one]	≤ 1000
COc1cc(N2CCC(N(C)C)CC2)ccc1-c1nc2c(C)nn(C3CCCCC3)c2c(=O)[nH]1 [Example 245, 1-Cyclohexyl-5-{4-[4-(dimethylamino)-1-piperidinyl]-2-methoxyphenyl}-3-methyl-1,6-dihydro-7H-pyrazolo[4,3-d]pyrimidin-7-one]	≤ 1000
COc1cc(N2CCC(N)CC2)ccc1-c1nc2c(C)nn(C3CCCCC3)c2c(=O)[nH]1 [Example 247, 5-[4-(4-Amino-1-piperidinyl)-2-methoxyphenyl]-1-cyclohexyl-3-methyl-1,6-dihydro-7H-pyrazolo[4,3-d]pyrimidin-7-one]	≤ 1000
CCOc1cc(N2CCC(N(C)C)CC2)ccc1-c1nc2c(C)nn(C3CCCCC3)c2c(=O)[nH]1 [Example 250, 1-Cyclohexyl-5-{4-[4-(dimethylamino)-1-piperidinyl]-2-ethoxyphenyl}-3-methyl-1,6-dihydro-7H-pyrazolo[4,3-d]pyrimidin-7-one]	≤ 10
CCNC1CCN(c2ccc(-c3nc4c(C)nn(C5CCCCC5)c4c(=O)[nH]3)c(OCC)c2)CC1 [Example 253, 1-Cyclohexyl-5-{2-ethoxy-4-[4-(ethylamino)-1-piperidinyl]phenyl}-3-methyl-1,6-dihydro-7H-pyrazolo[4,3-d]pyrimidin-7-one]	≤ 1000
CCOc1cc(S(=O)(=O)N2CCCN(C)CC2)ccc1-c1nc2c(C)nn(C3CCCCC3)c2c(=O)[nH]1 [Example 256, 1-Cyclohexyl-5-{2-ethoxy-4-[(4-methyl-1,4-diazepan-1-yl)sulfonyl]phenyl}-3-methyl-1,6-dihydro-7H-pyrazolo[4,3-d]pyrimidin-7-one]	≤ 1000
CCOc1cc(S(=O)(=O)N2CCC(O)CC2)ccc1-c1nc2c(C)nn(C3CCCCC3)c2c(=O)[nH]1 [Example 257, 1-Cyclohexyl-5-{2-ethoxy-4-[(4-hydroxy-1-piperidinyl)sulfonyl]phenyl}-3-methyl-1,6-dihydro-7H-pyrazolo[4,3-d]pyrimidin-7-one]	≤ 1000
COc1cc(N2CCC(O)CC2)ccc1-c1nc2c(C)nn(C3CCCCC3)c2c(=O)[nH]1 [Example 258, 1-Cyclohexyl-5-[4-(4-hydroxy-1-piperidinyl)-2-methoxyphenyl]-3-methyl-1,6-dihydro-7H-pyrazolo[4,3-d]pyrimidin-7-one]	≤ 1000
CCOc1cc(N2CCC(N)CC2)ccc1-c1nc2c(C)nn(C3CCCCC3)c2c(=O)[nH]1 [Example 260, 5-[4-(4-Amino-1-piperidinyl)-2-ethoxyphenyl]-1-cyclohexyl-3-methyl-1,6-dihydro-7H-pyrazolo[4,3-d]pyrimidin-7-one]	≤ 10
CCOc1cc(N2CCC(O)CC2)ccc1-c1nc2c(C)nn(C3CCCCC3)c2c(=O)[nH]1 [Example 261, 1-Cyclohexyl-5-[2-ethoxy-4-(4-hydroxy-1-piperidinyl)phenyl]-3-methyl-1,6-dihydro-7H-pyrazolo[4,3-d]pyrimidin-7-one]	≤ 10
CCOc1cc(N2CCCNCC2)ccc1-c1nc2c(C)nn(C3CCCCC3)c2c(=O)[nH]1 [Example 262, 1-Cyclohexyl-5-[4-(1,4-diazepan-1-yl)-2-ethoxyphenyl]-3-methyl-1,6-dihydro-7H-pyrazolo[4,3-d]pyrimidin-7-one]	≤ 10
CCOc1cc(NCCOC)ccc1-c1nc2c(C)nn(C3CCCCC3)c2c(=O)[nH]1 [Example 263, 1-Cyclohexyl-5-{2-ethoxy-4-[(2-methoxyethyl)amino]phenyl}-3-methyl-1,6-dihydro-7H-pyrazolo[4,3-d]pyrimidin-7-one]	≤ 10
CCOc1cc(N2CCN(C)CC2)ccc1-c1nc2c(C)nn(C3CCCCC3)c2c(=O)[nH]1 [Example 264, 1-Cyclohexyl-5-[2-ethoxy-4-(4-methyl-1-piperazinyl)phenyl]-3-methyl-1,6-dihydro-7H-pyrazolo[4,3-d]pyrimidin-7-one]	≤ 1000
COc1cc(N2CCCNCC2)c(F)cc1-c1nc2c(C)nn(C3CCCCC3)c2c(=O)[nH]1 [Example 266, 1-Cyclohexyl-5-[4-(1,4-diazepan-1-yl)-5-fluoro-2-methoxyphenyl]-3-methyl-1,6-dihydro-7H-pyrazolo[4,3-d]pyrimidin-7-one]	≤ 1000
COc1cc(N(C)C2CCN(C)CC2)ccc1-c1nc2c(C)nn(C3CCCCC3)c2c(=O)[nH]1 [Example 267, 1-Cyclohexyl-5-{2-methoxy-4-[methyl(1-methyl-4-piperidinyl)amino]phenyl}-3-methyl-1,6-dihydro-7H-pyrazolo[4,3-d]pyrimidin-7-one]	≤ 1000
CCOc1cc(N2CCNCC2)ccc1-c1nc2c(C)nn(C3CCCCC3)c2c(=O)[nH]1 [Example 268, 1-Cyclohexyl-5-[2-ethoxy-4-(1-piperazinyl)phenyl]-3-methyl-1,6-dihydro-7H-pyrazolo[4,3-d]pyrimidin-7-one]	≤ 1000
COc1cc(N2CC[C@@H](O)C2)ccc1-c1nc2c(C)nn(C3CCCCC3)c2c(=O)[nH]1 [Example 270, 1-Cyclohexyl-5-{4-[(3R)-3-hydroxypyrrolidinyl]-2-methoxyphenyl}-3-methyl-1,6-dihydro-7H-pyrazolo[4,3-d]pyrimidin-7-one]	≤ 1000
COc1cc(C2=CCN(Cc3ccccc3)CC2)ccc1-c1nc2c(C)nn(C3CCCCC3)c2c(=O)[nH]1 [Example 272, 5-[4-(1-Benzyl-1,2,3,6-tetrahydro-4-pyridinyl)-2-methoxyphenyl]-1-cyclohexyl-3-methyl-1,6-dihydro-7H-pyrazolo[4,3-d]pyrimidin-7-one]	≤ 1000
COc1cc(C2=CCNCC2)ccc1-c1nc2c(C)nn(C3CCCCC3)c2c(=O)[nH]1 [Example 273, 1-Cyclohexyl-5-[2-methoxy-4-(1,2,3,6-tetrahydro-4-pyridinyl)phenyl]-3-methyl-1,6-dihydro-7H-pyrazolo[4,3-d]pyrimidin-7-one monohydrochloride]	≤ 1000
CCNc1ccc(-c2nc3c(C)nn(C4CCCCC4)c3c(=O)[nH]2)c(OC)c1 [Example 275, 1-Cyclohexyl-5-[4-(ethylamino)-2-methoxyphenyl]-3-methyl-1,6-dihydro-7H-pyrazolo[4,3-d]pyrimidin-7-one]	≤ 1000
